# Experimental data: patent US8513484B2, “Fish cancer model” (Temasek Life Sciences Laboratory Limited, priority 2005, dated 2013)
# Experiments:
# [1] = tested on: EGFP-positive cells of embryos injected with EGFP-zK-rasB(V12) construct; experiment: Drug tests on zebrafish embryos injected with EGFP-zK-rasB(V12) construct (neoplastic transformation of EGFP-positive cells); assay type: in vivo; conditions: for Effects: preliminary screen; for specific effect on the EGFP-positive cells: 1 μg/ml; for effect on the transformed cells: 3 μg/ml
# Description: 5-10 pg of plasmid DNA were injected into zebrafish embryos at the 1-2-cell stage. The actual concentration of DNA was empirically adjusted to produce 50% embryo survival rate.
# A SMZ1500 Stereoscopic Zoom Microscope (Nikon) equipped with the epi-fluorescence attachment and DXM1200F digital camera (Nikon) with original software was used for image analysis.
# [2] = tested on: developing embryo; experiment: Toxicity of drugs for the developing embryo; assay type: in vivo, zebrafish
# Description: Drugs from BIOMOL® ICCB Known Bioactives Library Cat #2840 were used for drug tests. Drugs were diluted in standard fish water from the 5-mg/ml DMSO stock solutions. The injected embryos were sorted at 8 hours post fertilization (hpf) and the normally developing were selected for drug treatment. Ten to fifteen embryos per well were plated into 24-well microtiter plate and overlayed with 1.5 ml drug solution at 10 hpf. Embryos were incubated in the dark at 28° C. The results were observed every day until 5 days post fertilization (dpf).
# To evaluate feasibility of the model for drug discovery, a mini-screening was performed using selected compounds from BIOMOL® ICCB Known Bioactives Library. The embryos injected with EGFP-zK-rasB(V12) construct were treated with various drugs in 24-well microtiter plates. The drugs were administered into the standard fish water starting at 10 hpf. Concentration of drugs was proposed based on data from a preliminary screening for developmental toxicity.
# [3] = tested on: E-cadherin-mediated cell adhesion system; conditions: by restoring E-cadherin-mediated cell adhesion system; Nam et al., 2002; cited from earlier work
# [4] = 10 μg/ml in fish water from 10 hpf
# [5] = 3 μg/ml in fish water from 10 hpf
structure (smiles),measurement,setting,value
O=C1Nc2ccc(I)cc2/C1=C/c1cc(Br)c(O)c(Br)c1 [GW-5074],Effects,[1]; 1 μg/ml in fish water from 10 hpf,"Cytotoxic, non-specific effects"
"CC[C@H](C)[C@@H](CO[C@@H](Cc1ccccc1)C(=O)N[C@@H](CCS(C)(=O)=O)C(=O)OC(C)C)NC[C@@H](N)CS [L-744,832]",Effects,[1]; [4],NO
O=c1cc(N2CCOCC2)oc2c(-c3ccccc3)cccc12 [LY294002],Effects,[1]; [5],NO
CC[C@H](C)C(=O)O[C@H]1C[C@@H](C)C=C2C=C[C@H](C)[C@H](CC[C@@H]3C[C@@H](O)CC(=O)O3)[C@H]21 [Lovastatin],Effects,[1]; 0.003 μg/ml in fish water from 10 hpf,"Cytotoxic, non-specific effects"
CCCC[C@@H](C)/C=C(C)/C=C(\C)C(=O)NC1=C[C@@](O)(/C=C/C=C/C=C/C(=O)NC2=C(O)CCC2=O)[C@@H]2O[C@@H]2C1=O [Manumycin A],Effects,[1]; [5],NO
COc1cccc(-c2cc(=O)c3ccccc3o2)c1N [PD98059],concentration at which toxic effects on development become serious,"[2]; zebrafish, in vivo",10 ng/mL
same,growth of the EGFP-positive cells,[1]; 3 ng/ml,strongly impairs growth
same,shape and attachment of EGFP-positive cells,"[1]; 3 ng/ml, by 72 hpf","smaller, maintain flat shape and remain attached to the embryo"
same,Effects,[1]; [5],preserves the epithelial
Cc1ccc(-c2nn(C(C)(C)C)c3ncnc(N)c23)cc1 [PP1],toxicity for developing embryo,[2]; 1 μg/ml,tolerable
same,toxicity for developing embryo,[2]; 3 μg/ml,toxic
same,specific effect on the EGFP-positive cells,[1],considerably reduced
same,effect on the transformed cells,[1],maintained flat shape while continued to grow
same,Effects,[1]; [5],Keeps cells flat and attached
CC(C)(C)n1nc(-c2ccc(Cl)cc2)c2c(N)ncnc21 [PP2],toxicity for developing embryo,[2]; 1 μg/ml,tolerable
same,toxicity for developing embryo,[2]; 3 μg/ml,toxic
same,metastatic spread of cancer,[3],reduced metastatic spread of cancer
same,specific effect on the EGFP-positive cells,[1],considerably reduced
same,effect on the transformed cells,[1],maintained flat shape while continued to grow
same,Effects,[1]; [5],Keeps cells flat and attached
Cc1ccc(NC(=O)c2cccc(N(C)C)c2)cc1NC(=O)c1ccc(O)cc1 [ZM336372],Effects,[1]; [4],NO
